{
  "source": "paper PMC3743553",
  "about": "(Journal of child neurology, 2012)",
  "key": {"[1]": {"tested_on": "histone deacetylase enzyme 8", "conditions": "relative to histone deacetylase enzymes 1 and 3; cited from earlier work"}, "YG8R mouse": {"tested_on": "YG8R mouse", "conditions": "cited from earlier work"}, "[2]": {"tested_on": "histone deacetylase enzyme 2", "conditions": "relative to histone deacetylase enzymes 1 and 3; cited from earlier work"}, "[3]": {"tested_on": "KIKI (FXN 230GAA/230GAA) mouse", "conditions": "KIKI mice; cited from earlier work"}, "FXN messenger RNA [4]": {"tested_on": "FXN messenger RNA", "assay": "FXN messenger RNA by qRT-PCR in Friedreich ataxia lymphoid cells", "assay_type": "cell-based, human", "conditions": "10 μM compound, qRT-PCR of FXN messenger RNA"}, "frataxin protein": {"tested_on": "frataxin protein", "conditions": "Friedreich ataxia lymphoblast cell line; cited from earlier work"}, "FXN messenger RNA [5]": {"tested_on": "FXN messenger RNA", "assay": "FXN messenger RNA by qRT-PCR in peripheral blood mononuclear cells", "assay_type": "cell-based, human", "conditions": "10 μM, 48 hours"}, "[6]": {"tested_on": "global acetylation of histone H3", "conditions": "Friedreich ataxia lymphoblast cell line; cited from earlier work"}, "class II HDACs": {"tested_on": "class II HDACs", "conditions": "panel of recombinant human enzymes expressed in baculovirus; cited from earlier work"}, "[7]": {"tested_on": "class I histone deacetylase enzymes", "conditions": "106: histone deacetylase enzymes 1 and 3; cited from earlier work"}, "HDAC3": {"tested_on": "HDAC3", "conditions": "recombinant enzymes; cited from earlier work"}, "FXN messenger RNA [8]": {"tested_on": "FXN messenger RNA", "conditions": "cited from earlier work; for effects on FXN messenger RNA levels: Friedreich ataxia cells"}, "[9]": {"tested_on": "histones H3 and H4 within intron 1 of FXN", "conditions": "chromatin immunoprecipitation; cited from earlier work"}, "[10]": {"conditions": "pH = 2 and 50 °C; cited from earlier work"}},
  "data": [
    {"smiles": "Cc1ccc(NC(=O)CCCCCC(=O)Nc2ccccc2N)cc1", "note": "[compound 106]", "values": [
      {"measurement": "activity against histone deacetylase enzyme 8", "setting": "[1]", "result": "much lower activity"},
      {"measurement": "global histone H3 and H4 acetylation of brain tissue", "setting": "YG8R mouse", "result": "increased"},
      {"measurement": "toxicity during 5 months of treatment", "setting": "YG8R mouse", "result": "no overt toxicity"},
      {"measurement": "motor coordination", "setting": "YG8R mouse; long-term treatment", "result": "improvement"},
      {"measurement": "activity against histone deacetylase enzyme 2", "setting": "[2]", "result": "much lower activity"},
      {"measurement": "frataxin levels in the nervous system and heart", "setting": "[3]", "result": "restored"},
      {"measurement": "histone H3 and H4 acetylation in chromatin near the GAA•TTC repeat", "setting": "[3]", "result": "increased"},
      {"measurement": "FXN transcription", "setting": "FXN messenger RNA [4]", "result": "Highly active"},
      {"measurement": "induction of frataxin protein", "setting": "frataxin protein", "result": "potent inducer"},
      {"measurement": "FXN messenger RNA, cells from patients with Friedreich ataxia", "setting": "FXN messenger RNA [5]; peripheral blood mononuclear cells from affected individuals", "result": "significant increases"},
      {"measurement": "FXN messenger RNA, wild-type alleles in cells from unaffected individuals", "setting": "FXN messenger RNA [5]; peripheral blood mononuclear cells from unaffected individuals", "result": "only a very small effect"},
      {"measurement": "acetylated histones after washing cells free of the compounds", "setting": "[6]", "result": "persists for several hours"},
      {"measurement": "activity against class II histone deacetylases", "setting": "class II HDACs", "result": "little or no activity"},
      {"measurement": "mechanism of inhibition", "setting": "[7]", "result": "slow-on/slow-off"},
      {"measurement": "preference for histone deacetylase enzyme 3 over histone deacetylase enzyme 1", "setting": "HDAC3", "result": "~10", "unit": "fold"}
    ]},
    {"smiles": "CC(/C=C/C(=O)NO)=C\\[C@@H](C)C(=O)c1ccc(N(C)C)cc1", "note": "[trichostatin A]", "values": [
      {"measurement": "effects on FXN messenger RNA levels", "setting": "FXN messenger RNA [8]", "result": "no effects"},
      {"measurement": "histone acetylation on FXN (H3-K14, H4-K5, H4-K12 within intron 1)", "setting": "[9]", "result": "no effect"},
      {"measurement": "mechanism of inhibition", "setting": "[7]", "result": "rapid-on/rapid-off, classical competitive inhibitors"}
    ]},
    {"smiles": "Cc1ccc(C(=O)NCCCCCC(=O)Nc2ccccc2N)cc1", "note": "[compound 109]", "values": [
      {"measurement": "toxicity during 5 months of treatment", "setting": "YG8R mouse", "result": "no overt toxicity"},
      {"measurement": "t1/2 in acidic conditions", "setting": "[10]", "result": 6, "unit": "h"}
    ]},
    {"smiles": "Nc1ccccc1NC(=O)CCCCCCC(=O)Nc1ccccc1", "note": "[BML-210]", "values": [
      {"measurement": "repression of FXN in lymphoid cell lines derived from patients with Friedreich ataxia", "setting": "FXN messenger RNA [8]", "result": "relieve repression"}
    ]},
    {"smiles": "Nc1ccccc1NC(=O)CCCCCC(=O)Nc1ccccc1", "note": "[4b]", "values": [
      {"measurement": "histone acetylation on FXN (H3-K14, H4-K5, H4-K12 within intron 1)", "setting": "[9]", "result": "increases acetylation"}
    ]},
    {"smiles": "O=C(CCCCCCC(=O)Nc1ccccc1)NO", "note": "[suberoylanilide hydroxamic acid]", "values": [
      {"measurement": "effects on FXN messenger RNA levels", "setting": "FXN messenger RNA [8]", "result": "no effects"},
      {"measurement": "activator of FXN transcription in Friedreich ataxia cells", "setting": "FXN messenger RNA [8]; at subcytotoxic concentrations", "result": "inactive"},
      {"measurement": "induction of frataxin protein", "setting": "frataxin protein", "result": "no such activity"},
      {"measurement": "acetylated histones after washing cells free of the compounds", "setting": "[6]", "result": "rapidly lost"},
      {"measurement": "histone acetylation on FXN (H3-K14, H4-K5, H4-K12 within intron 1)", "setting": "[9]", "result": "no effect"}
    ]}
  ]
}
